Data set [1] can be described thus: UV-Vis and PCA based sterol sponge binding assay. The conditions noted are these: apparent KD, sterol sponge aggregates in vitro. From the text:
However, an alternative method was developed for reproducible formation of homogenous AmB and C2′epiAmB sterol sponge aggregates in vitro. Using these preparations, a quantitative UV-Vis and Principle Component (PCA) based assay for determining the apparent Kis for the binding of AmB and C2′epiAmB to ergosterol and cholesterol (FIGS. 2A-2D) was developed.

Data set [2] has as its system human red blood cells. Briefly: Toxicity to human red blood cells. It counts as cell-based. From the text:
(§1) This key discovery opened a path to the rational development of a non-toxic AmB variant. To probe its predicted role in sterol binding, the hydroxyl group was synthetically deleted at the C2′ position on the mycosamine appendage.
(§2) In each case, C2′epiAmB is non-toxic to human red blood cells, primary hREC, mice, and rats up to the highest dose tested.

The subject of data set [3] is 40 Aspergillus clinical isolates, including azole-resistant A. fumigatus, A. flavus, and A. terreus. Description: Antifungal testing, Fungus Testing Laboratory UT-San Antonio. It counts as cell-based. An excerpt: (§3) In vitro antifungal activity of C2′ epiAmB was compared with that of AmB against an extensive series of Candida and Aspergillus clinical isolates (FIG. 6A) at Evotec (Oxfordshire, UK). […] C2′epiAmB was also sent to the US national Fungus Testing Laboratory at UT-San Antonio for antifungal testing against an extended panel of especially challenging 40 Aspergillus clinical isolates, including azole-resistant A. fumigatus, A. flavus, and A. terreus (FIG. 6B).

The subject of data set [4] is Candida albicans SN250. Briefly: MIC against Candida albicans SN250. The format is cell-based.
For data set [5], the system named is clinically relevant invasive molds. Description: Activity against broader panel of invasive molds. It counts as cell-based. As to conditions: many strains, including pan-azole resistant strain F14196.
Text: as §3

The subject of data set [6] is A. fumigatus ATC204305. Description: In vitro antifungal activity (Evotec). The format is cell-based. The conditions noted are these: strain ATC204305.
Text: as §3

The test system of data set [7] is A. fumigatus AF91. Briefly: In vitro antifungal activity (Evotec). The format is cell-based. The conditions noted are these: strain AF91.
Text: as §3

For data set [8], the system named is A. fumigatus A1163. Briefly: In vitro antifungal activity (Evotec). The conditions noted are these: strain A1163. It counts as cell-based.
Text: as §3

The test system of data set [9] is A. fumigatus AF293. Briefly: In vitro antifungal activity (Evotec). The format is cell-based. As to conditions: strain AF293.
Text: as §3

Data set [10] concerns C. albicans. Briefly: Murine model of invasive candidiasis. The format is in vivo, mice. As for the experimental part:
Andes, D. et al., Antimicrobial agents and chemotherapy 2001, 45 (3), 922-6. In fact, the PD parameter that best correlates with outcome is Cmax-/MIC. The same was subsequently observed in a pulmonary model of invasive aspergillosis. Wiederhold, N. P. et al., Antimicrobial agents and chemotherapy 2006, 50 (2), 469-73.
A clinical isolate of C. albicans (SN250) was grown and quantified on SDA. For 24 h before infection, the organism was subcultured at 35° C. on SDA slants. A 106CFU/ml inoculum was prepared by placing six fungal colonies into 5 ml of sterile, depyrogenated normal (0.9%) saline warmed to 35° C. Six week-old ICR/Swiss specific-pathogen-free female mice were obtained from Harlan Sprague Dawley (Madison, Wis.). The mice were weighed (23-27 g) and disseminated candidiasis was induced via tail vein injection of 100 μl of inoculum. AmB and C2′ epiAmB were reconstituted in their deoxycholate form with 1.0 ml of saline5% dextrose. Each animal in the treatment group was given a single 200-μl intravenous (IV) injection of reconstituted AmB and C2′epiAmB 2 h after infection. Doses were calculated in terms of mg of compound per kg of body weight. At 24 h after infection, three animals per experimental condition were killed by CO2 asphyxiation. The kidneys from each animal were removed and homogenized. The homogenate was diluted serially tenfold with […] and plated on SDA. […]

Data set [11] concerns F. oxysporum SC 1087597. Briefly: Checkerboard broth microdilution (CLSI). It counts as cell-based. The conditions noted are these: isolate 1087597. The procedure: Isolates were tested against varying concentrations of amphotericin B and C2′epiAmB (range, 0.06 to 4 mg/L) and combined with fluconazole (range, 0.12 to 128 mg/L) or ketoconazole (range 0.008 to 8 mg/L) or voriconazole (range, 0.004 to 4 mg/L) using a checkerboard grid design following the Clinical and Laboratory Standards Institute (CLSI) broth microdilution method (M23Ed5).

For data set [12] the following is noted: rat, in vivo.
Data set [13] is described as follows: Intravenous toxicity in mice. The conditions noted are these: up to the highest dose tested.
The test system of data set [14] is primary hREC. Description: Toxicity to primary hREC. The format is cell-based, human.
Text: as §1, §2

Data set [15] is described as follows: Isothermal titration calorimetry (ITC) sterol binding.
Text: as §1
A practical 11-step synthesis of C2′epiAmB using a frontier site-selective acylation method was developed. Wilcock, B. C. et al., Nat Chem 2012, 4 (12), 996-1003; Uno, B. E. A synthesis enabled understanding of Amphotericin B leading to derivatives with improved therapeutic indices. University of Illinois at Urbana-Champaign, 2014. The sterol binding and cell killing activities was then determined.

Data set [16] relates to yeast cells. Description: Antifungal activity after ergosterol pre-complexation of the sponge. The conditions noted are these: sponge pre-complexed with ergosterol. The format is cell-based. From the text:
Anderson, T. M. et al., Nat Chem Biol 2014, 10 (5), 400-6. […] Davis, S. A., et al., Nat Chem Biol 2015, 11 (7), 481-7. To test whether C2′epiAmB primarily kills cells via the same sterol sponge mechanism, the C2′epiAmB sponge was similarly pre-complexed with ergosterol. […] Thus, C2′epiAmB similarly kills yeast primarily via sterol binding, and, by extension, the new compounds targeted in this application are expected to have a similar barrier to fungal resistance that has been observed for the past 50+years with AmB.

A short description of data set [17]: Intravenous toxicity in rats. As to conditions: IV, 2, 10, and 17.5 mg/kg.
In data set [18] the test system is Candida and Aspergillus clinical isolates. Description: In vitro antifungal activity against clinical isolates (Evotec). The format is cell-based. The conditions noted are these: many Candida and several Aspergillus strains.
Text: as §3

Values after ≈ are worked out from the molar mass of the structure shown. Where two headings read alike, the source gives them in different places.

Take `C[C@@H]1[C@H](O)[C@@H](C)/C=C/C=C/C=C/C=C/C=C/C=C/C=C/[C@H](OC2O[C@H](C)[C@@H](O)[C@H](N)[C@H]2O)CC2O[C@](O)(C[C@@H](O)C[C@@H](O)[C@H](O)CC[C@@H](O)C[C@@H](O)CC(=O)O[C@H]1C)C[C@H](O)[C@H]2C(=O)O` (stereo partly drawn) [C2′epiAmB, C2′epi amphotericin B]: the Kd in data set [1] (read-out: KD,chol) is over 2000 nM; in data set [1] (read-out: KD,erg), 150 nM. In data set [2], the “toxicity to human red blood cells” value is on record as “non-toxic”. In addition, the “less potent than AmB, average” value in [3] (average across all 40 strains) is reported as 5.6 fold. Also, the “less potent than AmB” value was 2-16 times in data set [3] (range over 40 Aspergillus clinical isolates); 4 fold in data set [6]; over 32 times in data set [7]; 4 fold in data set [8]; 4 fold in data set [9]. In addition, the MIC is 0.5 µM (≈ 0.462 µg/mL) in [4] and over 4 µg/mL in data set [11] (Fusarium oxysporum, single agent). In addition, in data set [5], the antifungal potency result is given as “good antifungal potency”. For the same compound, the fungal burden result in data set [10] (16 mg/kg dose) is “outstanding reductions in fungal burden”. Moreover, the efficacy entry in data set [10] (neutropenic ICR/Swiss mice, deoxycholate complex, single injection 1, 4, 8, or 16 mg/kg) is on record as “dose-dependent efficacy”. Besides, the entries for the “MIC when added 1 log2 unit lower of azoles' MIC” value in [11] (with ketoconazole) and in data set [11] (with voriconazole) were 0.06 mg/L and over 4 mg/L, respectively. The toxicity in rats entry in [12] is “non-toxic”. In [13], the toxicity in mice entry is on record as “non-toxic”. The “toxicity to primary hREC” value in data set [14] is reported as “non-toxic”. The “binding of ergosterol by ITC” value in data set [15] was “bind ergosterol”. For the same compound, the “binding of cholesterol by ITC” value in [15] (within the detection limits of ITC) is on record as “not (detectably) cholesterol”. Also, the “change of potency upon ergosterol pre-complexation” value in data set [16] is given as “same reduction in potency”. The mortality result in data set [17] was “no mortality”. Also, the “in vitro antifungal activity” value in data set [18] is “good activity”.

Source of the values: US20220370486A1, “COMBINATION TREATMENT OF SYSTEMIC FUNGAL INFECTIONS” (The Board of Trustees of the University of Illinois, priority 2019, published 2022).
